One assay deals with T1, CDK9/CycT1 (Homo sapiens, UniProt P50750).
T1 construct: Recombinant full-length His-tagged human CDK9 and CycT1; purchased Life Technologies PV4131; host or cells: insect cells
The experiment in a line: CDK9/CycT1 high ATP kinase assay (TR-FRET, 2 mM ATP). Particulars: 2 mM ATP (high ATP); median; read-out: CDK9/CyclinT1, 2 mM ATP (high ATP), IC50 (median). It counts as biochemical. In short, it runs like this:
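Full-length His-tagged human CDK9/CycT1 (insect cell, ~0.5 μg/mL) preincubated 15 min at 22 °C with compound in Tris pH 8.0, MgCl2, DTT buffer before reaction with biotinylated peptide substrate at high ATP (2 mM).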

In assay [1] the target is T2, CDK12 (nuclear staining in CAL-120 cells) (Homo sapiens, UniProt Q9NYV4).
T2 construct: endogenous in cells; host or cells: CAL-120 human breast cancer cells (DSMZ ACC 459)
The experiment in a line: CDK12 nuclear protein level: immunofluorescence/high content analysis (CAL-120). The following applies: for DC50: CAL-120 cells, 24 h, immunofluorescence, 50% reduction of nuclear CDK12 staining intensity, median, read-out: CDK12 degradation IF, DC50- [mol/l] (median); for (IC50 CDK12 high ATP) to (Degradation DC50 CDK12) ratio: ratio of IC50 CDK12 high ATP kinase assay to DC50 CDK12 degradation (IF, CAL-120). It counts as cell-based. The method, boiled down:
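DC50 is the degrader concentration that halves nuclear CDK12 immunofluorescence relative to controls, measured by high-content imaging. CAL-120 cells were exposed to compound for 24 h at 37 °C before PFA fixation, and signal was normalized to DMSO and control wells.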

Some results are limits rather than exact numbers.

T2 sequence (Q9NYV4 whole entry): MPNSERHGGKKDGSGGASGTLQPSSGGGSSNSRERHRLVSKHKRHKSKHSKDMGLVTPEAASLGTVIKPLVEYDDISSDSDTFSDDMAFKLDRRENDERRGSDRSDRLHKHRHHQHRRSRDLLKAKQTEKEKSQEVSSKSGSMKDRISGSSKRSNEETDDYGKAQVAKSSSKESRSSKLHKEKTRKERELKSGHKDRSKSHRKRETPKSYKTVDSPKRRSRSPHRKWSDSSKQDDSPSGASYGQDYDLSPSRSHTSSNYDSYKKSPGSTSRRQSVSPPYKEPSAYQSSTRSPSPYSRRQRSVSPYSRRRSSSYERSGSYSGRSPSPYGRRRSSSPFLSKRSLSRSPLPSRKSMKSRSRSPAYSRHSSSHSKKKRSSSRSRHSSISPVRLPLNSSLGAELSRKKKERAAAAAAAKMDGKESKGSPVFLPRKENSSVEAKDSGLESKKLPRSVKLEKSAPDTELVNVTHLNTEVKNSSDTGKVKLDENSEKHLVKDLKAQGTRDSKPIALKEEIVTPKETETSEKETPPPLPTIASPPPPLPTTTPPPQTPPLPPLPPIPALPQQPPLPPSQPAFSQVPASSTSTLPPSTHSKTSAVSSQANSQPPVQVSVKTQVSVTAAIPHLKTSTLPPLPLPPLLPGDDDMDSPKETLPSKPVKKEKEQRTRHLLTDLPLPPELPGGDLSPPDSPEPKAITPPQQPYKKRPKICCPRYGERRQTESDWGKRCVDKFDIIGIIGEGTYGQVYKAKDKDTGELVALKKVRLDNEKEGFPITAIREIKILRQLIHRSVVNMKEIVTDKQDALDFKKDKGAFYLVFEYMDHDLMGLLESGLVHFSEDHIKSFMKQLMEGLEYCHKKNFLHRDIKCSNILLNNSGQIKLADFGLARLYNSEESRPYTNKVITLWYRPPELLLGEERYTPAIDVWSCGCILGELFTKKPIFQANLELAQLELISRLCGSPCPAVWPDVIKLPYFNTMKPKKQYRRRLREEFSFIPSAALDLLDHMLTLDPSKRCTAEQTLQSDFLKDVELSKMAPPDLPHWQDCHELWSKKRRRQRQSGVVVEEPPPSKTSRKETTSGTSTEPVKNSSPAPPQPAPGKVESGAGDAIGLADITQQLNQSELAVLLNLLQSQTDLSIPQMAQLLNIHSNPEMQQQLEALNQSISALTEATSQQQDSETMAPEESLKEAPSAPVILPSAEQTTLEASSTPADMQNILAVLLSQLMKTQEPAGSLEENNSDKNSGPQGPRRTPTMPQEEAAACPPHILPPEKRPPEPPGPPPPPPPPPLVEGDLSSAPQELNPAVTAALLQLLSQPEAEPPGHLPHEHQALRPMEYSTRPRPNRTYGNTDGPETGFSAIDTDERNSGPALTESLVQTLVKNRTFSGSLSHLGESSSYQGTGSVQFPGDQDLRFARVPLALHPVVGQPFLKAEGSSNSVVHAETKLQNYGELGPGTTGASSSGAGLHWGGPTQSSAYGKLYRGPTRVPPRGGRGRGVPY
T2 sequence (O75909 whole entry partner): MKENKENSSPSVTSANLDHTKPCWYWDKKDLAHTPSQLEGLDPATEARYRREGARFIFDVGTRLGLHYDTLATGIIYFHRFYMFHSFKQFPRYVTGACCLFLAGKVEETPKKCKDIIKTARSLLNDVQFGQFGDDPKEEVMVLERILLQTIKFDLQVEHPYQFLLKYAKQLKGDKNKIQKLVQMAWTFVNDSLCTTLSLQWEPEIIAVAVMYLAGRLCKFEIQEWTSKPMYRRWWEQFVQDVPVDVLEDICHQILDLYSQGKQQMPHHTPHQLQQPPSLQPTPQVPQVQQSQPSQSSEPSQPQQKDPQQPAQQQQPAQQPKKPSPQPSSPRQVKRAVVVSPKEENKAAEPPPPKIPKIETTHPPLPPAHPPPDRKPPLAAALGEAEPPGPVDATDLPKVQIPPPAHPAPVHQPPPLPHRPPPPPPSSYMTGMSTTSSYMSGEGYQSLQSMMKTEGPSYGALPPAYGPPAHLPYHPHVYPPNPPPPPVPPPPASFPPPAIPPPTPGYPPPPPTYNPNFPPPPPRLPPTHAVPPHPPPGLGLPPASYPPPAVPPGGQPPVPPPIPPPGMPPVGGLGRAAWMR
T1 sequence (P50750 whole entry): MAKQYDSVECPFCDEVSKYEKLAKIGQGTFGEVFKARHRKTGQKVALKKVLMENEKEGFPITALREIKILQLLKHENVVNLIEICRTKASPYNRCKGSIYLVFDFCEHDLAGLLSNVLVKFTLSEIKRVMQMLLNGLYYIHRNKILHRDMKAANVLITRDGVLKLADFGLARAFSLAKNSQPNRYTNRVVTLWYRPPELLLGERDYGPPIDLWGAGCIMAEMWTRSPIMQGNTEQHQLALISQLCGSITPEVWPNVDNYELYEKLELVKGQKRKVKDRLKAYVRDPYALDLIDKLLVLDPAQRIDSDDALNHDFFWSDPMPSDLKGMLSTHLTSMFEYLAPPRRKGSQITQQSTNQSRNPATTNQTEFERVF
T1 sequence (O60563 whole entry partner): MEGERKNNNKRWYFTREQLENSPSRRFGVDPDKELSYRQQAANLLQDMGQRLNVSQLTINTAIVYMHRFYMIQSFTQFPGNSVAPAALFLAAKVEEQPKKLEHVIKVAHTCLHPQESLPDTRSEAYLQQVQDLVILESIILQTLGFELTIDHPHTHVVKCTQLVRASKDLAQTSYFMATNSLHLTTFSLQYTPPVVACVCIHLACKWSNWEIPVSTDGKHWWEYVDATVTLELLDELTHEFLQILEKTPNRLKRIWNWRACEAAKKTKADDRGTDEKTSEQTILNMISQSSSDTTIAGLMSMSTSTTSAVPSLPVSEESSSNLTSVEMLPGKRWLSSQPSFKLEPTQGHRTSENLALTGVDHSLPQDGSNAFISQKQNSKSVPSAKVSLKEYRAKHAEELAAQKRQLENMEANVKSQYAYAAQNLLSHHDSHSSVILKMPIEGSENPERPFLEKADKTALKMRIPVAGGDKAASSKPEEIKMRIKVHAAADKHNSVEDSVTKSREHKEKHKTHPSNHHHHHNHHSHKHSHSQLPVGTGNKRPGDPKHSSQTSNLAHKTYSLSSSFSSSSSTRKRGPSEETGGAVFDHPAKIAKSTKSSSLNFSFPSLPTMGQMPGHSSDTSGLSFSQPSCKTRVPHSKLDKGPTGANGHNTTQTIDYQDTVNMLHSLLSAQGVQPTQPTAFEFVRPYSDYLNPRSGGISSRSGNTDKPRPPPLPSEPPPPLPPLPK

Take `Fc1cccc2[nH]c(CNc3nc(N4CCOCC4)nc4c(C5CC5)cnn34)nc12` [Example 188, 8-cyclopropyl-N-[(4-fluoro-1H-benzimidazol-2-yl)methyl]-2-(morpholin-4-yl)pyrazolo[1,5-a][1,3,5]triazin-4-amine]: the IC50 at CDK9/CycT1 was greater than 20000 nM. Also, in assay [1], the DC50 was found to be 1.26 nM and the “(IC50 CDK12 high ATP) to (Degradation DC50 CDK12) ratio” value amounted to 460.

As to `Fc1cccc2[nH]c(CNc3nc(N4CCNCC4)nc4c(C5CC5)cnn34)nc12` [Example 182, 8-cyclopropyl-N-[(4-fluoro-1H-benzimidazol-2-yl)methyl]-2-(piperazin-1-yl)pyrazolo[1,5-a][1,3,5]triazin-4-amine], the IC50 on CDK9/CycT1 is greater than 20000 nM. In addition, in assay [1], the DC50 is 0.727 nM and the “(IC50 CDK12 high ATP) to (Degradation DC50 CDK12) ratio” value turned out to be 2813.

On to `O[C@H]1C[C@@H](Nc2nc(NCc3nc4ccccc4[nH]3)n3ncc(Br)c3n2)C1` [Example 234, cis-3-[(4-{[(1H-benzimidazol-2-yl)methyl]amino}-8-bromopyrazolo[1,5-a][1,3,5]triazin-2-yl)amino]cyclobutan-1-ol], for which the IC50 at CDK9/CycT1 is greater than 20000 nM. Also, in assay [1], the DC50 was 10.3 nM and the “(IC50 CDK12 high ATP) to (Degradation DC50 CDK12) ratio” value is 472.

Turning to `CN1CC[C@H]2CN(c3nc(NCc4nc5ccccc5[nH]4)n4ncc(Br)c4n3)C[C@H]21` [Example 179, N-[(1H-benzimidazol-2-yl)methyl]-8-bromo-2-[(3aS,6aS)-1-methylhexahydropyrrolo[3,4-b]pyrrol-5 (1H)-yl]pyrazolo[1,5-a][1,3,5]triazin-4-amine], the IC50 at CDK9/CycT1 is greater than 20000 nM. Further, in assay [1], the DC50 is 4.59 nM and the “(IC50 CDK12 high ATP) to (Degradation DC50 CDK12) ratio” value is greater than 4361.

Consider `Fc1ccc2[nH]c(CNc3nc(N4C[C@@H]5C[C@H]4CO5)nc4c(C5CC5)cnn34)nc2c1F` [Example 173, 8-cyclopropyl-N-[(4,5-difluoro-1H-benzimidazol-2-yl)methyl]-2-[(1S,4S)-2-oxa-5-azabicyclo[2.2.1]heptan-5-yl]pyrazolo[1,5-a][1,3,5]triazin-4-amine], for which, at CDK9/CycT1, the IC50 is greater than 20000 nM. In assay [1], the DC50 worked out at 1.74 nM and the “(IC50 CDK12 high ATP) to (Degradation DC50 CDK12) ratio” value is greater than 11498.

With `CN(CCN1CCCC1)c1nc(NCc2nc3ccccc3[nH]2)n2ncc(Br)c2n1` [Example 239, N4-(1H-benzimidazol-2-ylmethyl)-8-bromo-N2-methyl-N2-(2-pyrrolidin-1-ylethyl)pyrazolo[1,5-a][1,3,5]triazine-2,4-diamine], the IC50 on CDK9/CycT1 is greater than 20000 nM. Moreover, in assay [1], the DC50 worked out at 347 nM and the “(IC50 CDK12 high ATP) to (Degradation DC50 CDK12) ratio” value is reported as greater than 58.

With `Cc1ccc2[nH]c(CNc3nc(N4C[C@@H](C)N[C@@H](C)C4)nc4c(Br)cnn34)nc2c1` [Example 209, 8-bromo-2-[(3R,5S)-3,5-dimethylpiperazin-1-yl]-N-[(5-methyl-1H-benzimidazol-2-yl)methyl]pyrazolo[1,5-a][1,3,5]triazin-4-amine], the IC50 at CDK9/CycT1 is greater than 20000 nM. Moreover, in assay [1], the DC50 turned out to be 0.471 nM and the “(IC50 CDK12 high ATP) to (Degradation DC50 CDK12) ratio” value is on record as 14455.

For the compound `COc1cccc2[nH]c(CNc3nc(N4C[C@@H](C)N[C@@H](C)C4)nc4c(C5CC5)cnn34)nc12` [Example 212, 8-cyclopropyl-2-[(3R,5S)-3,5-dimethylpiperazin-1-yl]-N-[(4-methoxy-1H-benzimidazol-2-yl)methyl]pyrazolo[1,5-a][1,3,5]triazin-4-amine], at CDK9/CycT1, the IC50 is greater than 20000 nM. Also, in assay [1], the DC50 stood at 1.09 nM and the “(IC50 CDK12 high ATP) to (Degradation DC50 CDK12) ratio” value is 3798.

As for `CN1CCN(c2nc(NCc3nc4ccccc4[nH]3)n3ncc(-c4ccncc4)c3n2)CC1` [Example 242, N-[(1H-benzimidazol-2-yl)methyl]-2-(4-methylpiperazin-1-yl)-8-(pyridin-4-yl)pyrazolo[1,5-a][1,3,5]triazin-4-amine], the IC50 at CDK9/CycT1 was greater than 20000 nM. Also, in assay [1], the DC50 amounted to 107 nM and the “(IC50 CDK12 high ATP) to (Degradation DC50 CDK12) ratio” value is recorded as greater than 188.

These data come from patent publication US20230117034A1, “PYRAZOLOTRIAZINES” (Bayer Aktiengesellschaft, priority 2019, published 2023).
